Key:
USP-2 and UCH-L3 [1] = experiment: Downscaling: compatibility of the deubiquitinase assay with HBC and DMSO; type: biochemical, human
Protocol: One important factor which has to be tested during downscaling of the assay to the […] (2080 well nanoplates) is the assay's compatibility with hydroxy beta cyclodextrin (HBC) and DMSO. Nanocarriers are coated with HBC in order facilitate re-solubilization of dried test compounds (‘dry screening’) and to reduce adsorption of assay components to the carrier. If HBC interferes with the assay, pre-coated plates can not be used and ‘wet screening’, utilizing compounds dissolved in DMSO, has to be performed. […] Even DMSO concentrations of up to 5% are found to be compatible with the screen. […] These findings support a ‘wet screening’ format for these target family.

USP-2 and UCH-L3 [2] = experiment: Inhibition of the deubiquitinases (titration of inhibitor, fluorescence polarization assay); type: biochemical, human; conditions: in presence of 5 mM DTT
Protocol: Measurements of polarization and lifetime are performed on the research reader of Evotec OAI (see below). To perform the test, the de-ubiquitinating enzyme is first put into the well and the addition of the substrate triggered the start of the reaction. The enzymatic reaction is stopped by shifting the pH from 7.5 to 5 with the addition of Stop buffer (end concentration of 30 mM malonic acid pH 4.5—see TABLE 1). With this procedure the read-out could be kept stable for several hours.
Cysteine proteases, such as USP-2 and UCH-L3, are sensitive to covalent modification of the active site cystein. […] Ubiquitin aldehyde is a known inhibitor for both enzymes, USP-2 and UCH-L3. […] Using this molecule we analyzed whether addition of DTT can be utilized to mask the activity of covalent active site inhibitors during the screen. When titrating Ubiquitin aldehyde in presence of 5 mM DTT an IC50 value of 100 nM was found.

USP-2 and UCH-L3 [3] = conditions: in absence of reducing agent; cited from earlier work

C[S+](C)[O-] [DMSO]
Concentration compatible with the screen (USP-2 and UCH-L3 [1]): up to 5% | Interference with the reaction (USP-2 and UCH-L3 [1]; increasing concentrations added to the assay): only a minimal interference

Ubiquitin aldehyde
IC50 (USP-2 and UCH-L3 [2]): 0.1 µM | Potency (USP-2 and UCH-L3 [3]): pM activity range

hydroxy beta cyclodextrin [HBC]
Effect on enzymatic activity (USP-2 and UCH-L3 [1]; HBC added to the assay): a reduction of the enzymatic activity was observed

From patent US20080038768A1, “Assay for ubiquitin mediated proteolysis” (priority 2006, published 2008)
